Results reported in patent US20240287172A1, “PROTEIN BINDERS TO IRHOM2 EPITOPES” (SCIRHOM GMBH, priority 2019, published 2024).

Tested on: PMA-induced release of endogenous IL-6R from human U-937 cells
Experiment: ELISA-based IL-6R release assay, PMA-induced, U-937 cells
Assay type: cell-based
Conditions: U-937, 1 h, PMA 62.5 ng/ml, Batimastat at 10 μM
Experimental: In brief, on day 1, Nunc black MaxiSorp® 96-well plates (Thermo Fisher Scientific, USA) were coated overnight with 100 μl per well of mouse anti-human IL-6R capture antibody (provided as part of the DuoSet ELISA kit) at 2 μg/ml TBS at 4° C. On day 2, the capture antibody solution was removed and MaxiSorp® plates were blocked with 300 μl per well of TBS, 1% BSA at room temperature for 1-2 hours. Meanwhile, 80,000 U-937 (European Collection of Authenticated Cell Cultures, UK) cells in 80 μl of normal growth medium were seeded in each well of Greiner CELLSTAR V-bottom 96-well plates (Thermo Fisher Scientific, USA) and pre-incubated with 20 μl per well of standard growth medium supplemented with Batimastat (BB94, Abcam, UK) at 50 μM as positive control (for a final concentration of 10 μM in the resulting 100 μl sample volume), mouse IgG antibody (Thermo Fisher Scientific, USA) at 5 μg/ml as isotype control (for a final […]) at 37° C., 5% CO2 for 30 minutes. In case of stimulation controls, 20 μl of standard growth medium without test articles were added. […] Using an infinite M1000 (Tecan Group, Switzerland) microplate reader, the fluorescence of each well was collected at an excitation wavelength of 435 nm and an emission wavelength of 555 nm. […]

Structure (SMILES): CNC(=O)[C@H](Cc1ccccc1)NC(=O)[C@H](CC(C)C)[C@H](CSc1cccs1)C(=O)NO [Batimastat]
- inhibition at 10 µM (murine (m) and chimeric (ch) antibodies and IgG at 3 μg/ml): 91.6%
- inhibition at 10 µM (recombinant murine antibodies and IgG at 1 μg/ml): 86.6%
